Laboratory results published in patent publication US20180078655A1, “IMMUNOCONJUGATES FOR SPECIFIC INDUCTION OF T CELL CYTOTOXICITY AGAINST A TARGET CELL” (priority 2015, published 2018).

System: A-375, PC-3, HCT-116 tumor cell lines
Assay: LDH release assay and xCELLigence, FLU peptide immunoconjugate
Assay type: cell-based, human
Conditions: xCELLigence, 6, 10 and 18 hours

For CTELKLSDY [free peptide], the “tumor cell killing over the course of time” value was “usually decreased in higher incubation times”.
